Experimental data from patent publication US20230146455A1, “TREATMENT OF INFLAMMATORY DISEASES WITH PEPTIDES AND PHARMACEUTICAL COMPOSITIONS” (Yuyu Pharma, Inc., priority 2020, published 2023).
Where “and” joins values, the source holds several entries; their conditions need not be identical. Equal entries are not always repeated. Where a SMILES comes first, the peptide text is derived from it. [ ]: non-standard residue; d: D form. Hyp = O=C(O)[C@@H]1C[C@@H](O)CN1

Test system: CCL2/JE/MCP-1
Experiment: Example 9 Luminex, LPS hPBMCs: CCL2/JE/MCP-1
Assay type: cell-based, human
Description: Treatment Human PBMCs were pretreated with YY-101, YDE-011 and YDE-043 or reference compound; Xiidra® at various concentration (ranging from 1 nM to 100 uM) for 2 h before stimulation. An equal volume of 0.5% DMSO was used as a vehicle control. Then, the cells were treated with LPS at 5 ug/ml. The supernatants from treated cells were harvested at 24 h and placed in a 96 well for Luminex cytokine & chemokine profiling using a Luminex 200 multiplex assay (Luminex; R&D system, USA).
The main study arm with triplicate wells per group in a 24-well plate: • 1. Blank • 2. PBMC: 0.5% DMSO • 3. PBMC+LPS (5 ug/ml) • 4. PBMC+YY-101 100 uM • 5. PBMC+YY-101 10 uM • 6. PBMC+YY-101 1 uM • 7. PBMC+YY-101 0.1 uM • 8. PBMC+YY-101 0.01 uM • 9. PBMC+LPS (5 ug/ml)+Xiidra®100 uM • 10. PBMC+LPS (5 ug/ml)+Xiidra® 10 uM • 11. PBMC+LPS (5 ug/ml)+Xiidra® 1 uM • 12. PBMC+LPS (5 ug/ml)+Xiidra®0.1 uM • 13. PBMC+LPS (5 ug/ml)+Xiidra®0.01 uM • 14. PBMC+LPS (5 ug/ml)+Xiidra®0.001 uM • 15. PBMC+LPS (5 ug/ml)+YY-101 100 uM • 16. PBMC+LPS (5 ug/ml)+YY-101 10 uM • 17. PBMC+LPS (5 ug/ml)+YY-101 1 uM • 18. PBMC+LPS (5 ug/ml)+YY-101 0.1 uM • 19. PBMC+LPS (5 ug/ml)+YY-101 0.01 uM • 20. PBMC+LPS (5 ug/ml)+YY-101 0.001 uM • 21. PBMC+LPS (5 ug/ml)+YDE-011 100 uM • 22. PBMC+LPS (5 ug/ml)+YDE-011 10 uM • 23. PBMC+LPS (5 ug/ml)+YDE-011 1 uM • 24. PBMC+LPS (5 ug/ml)+YDE-011 0.1 uM • 25. PBMC+LPS (5 ug/ml)+YDE-011 0.01 uM • 26. PBMC+LPS (5 ug/ml)+YDE-011 0.001 uM • 27. PBMC+LPS (5 ug/ml)+YDE-043 100 uM • 28. PBMC+LPS (5 ug/ml)+YDE-043 10 uM • 29. PBMC+LPS (5 ug/ml)+YDE-043 1 uM • 30. PBMC+LPS (5 ug/ml)+YDE-043 0.1 uM • 31. PBMC+LPS (5 ug/ml)+YDE-043 0.01 uM • 32. PBMC+LPS (5 ug/ml)+YDE-043 0.001 uM
Multiplex assay was used to measure 30 cytokines and chemokines. The 1:2, 1:10 and 1:200 diluted cell supernatant and serial dilution of the standard were dispensed into a 96 well plate at 50 ul/well. Then, the pre-mixed cocktail of antibody-coated magnetic beads was dispensed at 50 ul/well and incubated at room temperature for 2 h in a horizontal orbital microplate shaker at 800±500 rpm. The beads were washed using a magnetic device to prevent loss. The biotin-antibody was dispensed in 50 ul of each well and incubated at room temperature for 1 h in a shaker at 800±500 rpm. After washing, streptavidin-PE was added at 50 ul/well and incubated at room temperature for 30 min in a shaker under the same conditions. Finally, after washing, wash buffer (100 ul/well) was added to the plate and incubated in a shaker for 2 min. The Luminex™ 200 setting were set according to the manufacturer's protocol. The data was calculated with a standard five-parameter logistic nonlinear regression analysis of the data (xPonent software 4.2, USA). The levels of cytokine/chemokine are normalized to the live cell counts (1×10^5 cells/mL) and presented as concentrations per mL (pg/mL or ng/mL).

[1] = PBMC + LPS(5 ug/ml) + test article 0.001 uM, Mean
[2] = PBMC + LPS(5 ug/ml) + test article 0.001 uM, individual replicates
[3] = PBMC + LPS(5 ug/ml) + test article 0.01 uM, Mean
[4] = PBMC + LPS(5 ug/ml) + test article 0.01 uM, individual replicates
[5] = PBMC + LPS(5 ug/ml) + test article 0.1 uM, Mean
[6] = PBMC + LPS(5 ug/ml) + test article 0.1 uM, individual replicates
[7] = PBMC + LPS(5 ug/ml) + test article 1 uM, Mean
[8] = PBMC + LPS(5 ug/ml) + test article 1 uM, individual replicates
[9] = PBMC + LPS(5 ug/ml) + test article 10 uM, Mean
[10] = PBMC + LPS(5 ug/ml) + test article 10 uM, individual replicates
[11] = PBMC + LPS(5 ug/ml) + test article 100 uM, Mean
[12] = PBMC + LPS(5 ug/ml) + test article 100 uM, individual replicates
[13] = PBMC + test article 0.01 uM, no LPS, Mean
[14] = PBMC + test article 0.01 uM, no LPS, individual replicates
[15] = PBMC + test article 0.1 uM, no LPS, Mean
[16] = PBMC + test article 0.1 uM, no LPS, individual replicates
[17] = PBMC + test article 1 uM, no LPS, Mean
[18] = PBMC + test article 1 uM, no LPS, individual replicates
[19] = PBMC + test article 10 uM, no LPS, Mean
[20] = PBMC + test article 10 uM, no LPS, individual replicates
[21] = PBMC + test article 100 uM, no LPS, Mean
[22] = PBMC + test article 100 uM, no LPS, individual replicates

CC(C)C[C@H](NC(=O)CNC(=O)[C@H](CC(=O)O)NC(=O)[C@H](CCC(N)=O)NC(=O)CNC(=O)[C@@H]1C[C@@H](O)CN1)C(=O)N[C@@H](C)C(=O)NCC(=O)N1CCC[C@H]1C(=O)N[C@@H](CCCCN)C(=O)O [YY-101] (H-[Hyp]GQDGLAGPK-OH; N-terminus and C-terminus assumed)
Concentration [1]: 3936.7 pg/mL
conc/live cell [1]: 612.8 pg/10^5
Concentration [2]: 3765.3 pg/mL and 3838.5 pg/mL and 4206.2 pg/mL
conc/live cell [2]: 660.6 pg/10^5 and 540.6 pg/10^5 and 637.3 pg/10^5
Concentration [3]: 4029.1 pg/mL
conc/live cell [3]: 653.6 pg/10^5
Concentration [4]: 4143.7 pg/mL and 4045.9 pg/mL and 3897.7 pg/mL
conc/live cell [4]: 647.5 pg/10^5 and 674.3 pg/10^5 and 639.0 pg/10^5
Concentration [5]: 3583.8 pg/mL
conc/live cell [5]: 616.4 pg/10^5
Concentration [6]: 3601.3 pg/mL and 3708.0 pg/mL and 3442.0 pg/mL
conc/live cell [6]: 580.9 pg/10^5 and 713.1 pg/10^5 and 555.2 pg/10^5
Concentration [7]: 4023.9 pg/mL
conc/live cell [7]: 619.0 pg/10^5
Concentration [8]: 3902.2 pg/mL and 3911.6 pg/mL and 4257.8 pg/mL
conc/live cell [8]: 619.4 pg/10^5 and 550.9 pg/10^5 and 686.7 pg/10^5
Concentration [9]: 3459.8 pg/mL
conc/live cell [9]: 524.3 pg/10^5
Concentration [10]: 3308.6 pg/mL and 3697.4 pg/mL and 3373.4 pg/mL
conc/live cell [10]: 551.4 pg/10^5 and 577.7 pg/10^5 and 443.9 pg/10^5
Concentration [11]: 598.6 pg/mL
conc/live cell [11]: 104.2 pg/10^5
Concentration [12]: 541.0 pg/mL and 629.1 pg/mL and 625.5 pg/mL
conc/live cell [12]: 85.9 pg/10^5 and 101.5 pg/10^5 and 125.1 pg/10^5
Concentration [13]: 3382.2 pg/mL
conc/live cell [13]: 692.4 pg/10^5
Concentration [14]: 1522.2 pg/mL and 5242.2 pg/mL
conc/live cell [14]: 292.7 pg/10^5 and 1092.1 pg/10^5
Concentration [15]: 2047.1 pg/mL
conc/live cell [15]: 389.7 pg/10^5
Concentration [16]: 1338.6 pg/mL and 2755.6 pg/mL
conc/live cell [16]: 304.2 pg/10^5 and 475.1 pg/10^5
Concentration [17]: 1790.1 pg/mL
conc/live cell [17]: 325.5 pg/10^5
Concentration [18]: 1471.3 pg/mL and 2108.8 pg/mL
conc/live cell [18]: 267.5 pg/10^5 and 383.4 pg/10^5
Concentration [19]: 7729.5 pg/mL
conc/live cell [19]: 1218.8 pg/10^5
Concentration [20]: 12584.2 pg/mL and 2874.9 pg/mL
conc/live cell [20]: 1966.3 pg/10^5 and 471.3 pg/10^5
Concentration [21]: 1095.4 pg/mL
conc/live cell [21]: 165.8 pg/10^5
Concentration [22]: 1394.1 pg/mL and 796.7 pg/mL
conc/live cell [22]: 217.8 pg/10^5 and 113.8 pg/10^5
